Test results as given in patent US20230365537A1, “POLO LIKE KINASE 4 INHIBITORS” (ORIC Pharmaceuticals, Inc., priority 2021, published 2023).

Tests used:
[1] = target: human recombinant Aurora B (Homo sapiens (Human), UniProt Q96GD4); experiment: Aurora B Kinase Biochemical Assay (ADP-Glo); details: ratio of Aurora B IC50 to PLK4 IC50 (selectivity)
How it was run: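 IC50 derived by four-parameter nonlinear fit of ADP-Glo luminescence (ADP produced). Compound was preincubated 15 min at RT with 20 nM recombinant human Aurora B, in 50 mM HEPES pH 7.5, 10 mM MgCl2, 1 mM EGTA, 1 mM DTT, 0.01% Brij-35/BSA.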

CHP-134 cells = experiment: CHP134 CellTiter-Glo (CTG) Assay; type: cell-based; details: Homo sapiens, CHP-134, 120 h, 5 days, viable cells by CellTiter-Glo
How it was run: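 Nine-point 1:3 dilution series, diluted into growth media, added in quadruplicate to CHP-134 cells plated 16 h earlier at 200 cells/well.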

[2] = target: human recombinant Aurora A (Homo sapiens (Human), UniProt O14965); experiment: Aurora A Kinase Biochemical Assay (ADP-Glo); details: ratio of Aurora A IC50 to PLK4 IC50 (selectivity)
human recombinant PLK4 = human recombinant PLK4 (Homo sapiens (Human), UniProt O00444); experiment: PLK4 Biochemical Assay (ADP-Glo); details: 0.5 nM PLK4, 8.0 µM ATP, 4.7 µM MBP, 6 hours at RT
How it was run: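 Luminescent ADP-Glo detection quantified ADP production, with ATP depletion for 40 min and detection for 30 min at room temperature. Compound and PLK4 (1.0 nM stock addition) were preincubated 15 min in HEPES pH 7.5 buffer containing MgCl2, EGTA, DTT, Brij-35 and BSA. IC50 values were obtained by four-parameter nonlinear regression.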

Sequence of human recombinant Aurora A (O14965 whole entry): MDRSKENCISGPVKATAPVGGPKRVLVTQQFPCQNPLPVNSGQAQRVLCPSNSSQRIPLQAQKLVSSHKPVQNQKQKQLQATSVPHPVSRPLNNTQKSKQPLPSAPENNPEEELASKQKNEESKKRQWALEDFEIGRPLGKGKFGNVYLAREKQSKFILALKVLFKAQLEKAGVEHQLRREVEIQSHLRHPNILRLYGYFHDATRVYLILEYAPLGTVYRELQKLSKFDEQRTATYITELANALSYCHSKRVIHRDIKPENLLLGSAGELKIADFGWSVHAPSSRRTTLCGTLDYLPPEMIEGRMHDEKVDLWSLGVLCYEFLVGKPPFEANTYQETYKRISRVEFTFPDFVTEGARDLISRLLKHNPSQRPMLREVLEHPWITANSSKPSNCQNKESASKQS
Sequence of human recombinant Aurora B (Q96GD4 whole entry): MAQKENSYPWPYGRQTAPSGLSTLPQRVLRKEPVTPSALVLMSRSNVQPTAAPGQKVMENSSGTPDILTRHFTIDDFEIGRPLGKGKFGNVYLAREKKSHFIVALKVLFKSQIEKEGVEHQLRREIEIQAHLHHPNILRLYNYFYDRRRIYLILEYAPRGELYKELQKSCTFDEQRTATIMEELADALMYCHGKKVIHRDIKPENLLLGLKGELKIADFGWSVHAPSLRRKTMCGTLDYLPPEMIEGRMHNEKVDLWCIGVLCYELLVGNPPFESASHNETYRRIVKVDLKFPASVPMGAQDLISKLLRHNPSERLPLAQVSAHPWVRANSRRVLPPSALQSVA
Sequence of human recombinant PLK4 (O00444 whole entry): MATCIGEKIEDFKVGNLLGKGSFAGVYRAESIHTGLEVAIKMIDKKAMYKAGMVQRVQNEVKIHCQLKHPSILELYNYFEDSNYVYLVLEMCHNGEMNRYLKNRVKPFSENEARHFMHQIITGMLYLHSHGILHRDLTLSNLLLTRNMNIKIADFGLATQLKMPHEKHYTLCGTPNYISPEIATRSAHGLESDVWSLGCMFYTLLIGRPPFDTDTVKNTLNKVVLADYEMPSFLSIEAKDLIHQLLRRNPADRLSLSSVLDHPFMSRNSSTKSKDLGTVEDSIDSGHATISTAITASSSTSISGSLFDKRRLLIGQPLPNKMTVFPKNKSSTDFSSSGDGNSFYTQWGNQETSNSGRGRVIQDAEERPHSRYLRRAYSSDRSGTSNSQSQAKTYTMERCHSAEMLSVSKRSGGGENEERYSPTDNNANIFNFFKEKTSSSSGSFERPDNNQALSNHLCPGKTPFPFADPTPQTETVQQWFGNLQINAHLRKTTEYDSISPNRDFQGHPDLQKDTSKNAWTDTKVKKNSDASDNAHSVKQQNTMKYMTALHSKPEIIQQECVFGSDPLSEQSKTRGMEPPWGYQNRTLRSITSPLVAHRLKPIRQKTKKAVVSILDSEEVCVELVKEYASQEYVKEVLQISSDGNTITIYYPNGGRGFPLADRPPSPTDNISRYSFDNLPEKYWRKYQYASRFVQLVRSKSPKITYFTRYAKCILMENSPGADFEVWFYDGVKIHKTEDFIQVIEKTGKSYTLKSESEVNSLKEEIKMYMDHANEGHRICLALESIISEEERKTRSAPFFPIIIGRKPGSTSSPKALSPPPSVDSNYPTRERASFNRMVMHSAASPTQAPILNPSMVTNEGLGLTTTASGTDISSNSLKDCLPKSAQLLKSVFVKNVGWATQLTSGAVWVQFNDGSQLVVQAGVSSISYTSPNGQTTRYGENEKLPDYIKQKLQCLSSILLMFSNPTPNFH

| [Aurora B IC50 (nM)]/[PLK4 IC50 (nM)] [1] | [Aurora A IC50 (nM)]/[PLK4 IC50 (nM)] [2] | IC50 (human recombinant PLK4) | SMILES | IC50 (CHP-134 cells) |
| --- | --- | --- | --- | --- |
| 96.18 | 297.6878 | 5.19 nM | COc1ccc2c(c1)[C@]1(C[C@H]1c1ccc3c(Nc4ncc(C5CS(=O)(=O)C5)nc4OC)n[nH]c3c1)C(=O)N2 [Example 254, 3-[6-methoxy-5-({6-[(1R,2S)-5′-methoxy-2′-oxo-1′,2′-dihydrospiro[cyclopropane-1,3′-indol]-2-yl]-1H-indazol-3-yl}amino)pyrazin-2-yl]-1λ6-thietane-1,1-dione] | 2160 nM |
| 566.4948 | 840.1202 | 1.16 nM | COc1ccc2c(c1)[C@]1(C[C@H]1c1ccc3c(Nc4ncc(S(=O)(=O)N5CCOCC5)cc4OC)n[nH]c3c1)C(=O)N2 [Example 255] | 380 nM |
| 1153 | 1143.4287 | 0.65 nM | COc1ccc2c(c1)[C@]1(C[C@H]1c1ccc3c(Nc4ncc(S(=O)(=O)N5CC6CCC(C5)O6)cc4OC)n[nH]c3c1)C(=O)N2 [Example 256, (1R,2S)-5′-methoxy-2-(3-{[3-methoxy-5-(8-oxa-3-azabicyclo[3.2.1]octane-3-sulfonyl)pyridin-2-yl]amino}-1H-indazol-6-yl)spiro[cyclopropane-1,3′-indol]-2′(1′H)-one] | 310 nM |
| 324.5524 | 1259.8465 | 3.91 nM | CCP(=O)(CC)c1ccc(Nc2n[nH]c3cc([C@@H]4C[C@@]45C(=O)Nc4ccc(OC)cc45)ccc23)c(OC)n1 [Example 257, (1R,2S)-2-(3-{[6-(diethylphosphoryl)-2-methoxypyridin-3-yl]amino}-1H-indazol-6-yl)-5′-methoxyspiro[cyclopropane-1,3′-indol]-2′(1′H)-one] | 1590 nM |
| 464.7558 | 1100.4954 | 1.41 nM | COc1ccc2c(c1)[C@]1(C[C@H]1c1ccc3c(Nc4ncc(S(=O)(=O)C5CC5)cc4OC)n[nH]c3c1)C(=O)N2 [Example 258, (1R,2S)-2-(3-{[5-(Cyclopropanesulfonyl)-3-methoxypyridin-2-yl]amino}-1H-indazol-6-yl)-5′-methoxyspiro[cyclopropane-1,3′-indol]-2′(1′H)-one] | 168 nM |
| 835.2904 | 1294.8084 | 0.971 nM | COc1ccc2c(c1)[C@]1(C[C@H]1c1ccc3c(Nc4ncc(S(=O)(=O)C5CCOCC5)cc4OC)n[nH]c3c1)C(=O)N2 [Example 259, (1R,2S)-5′-methoxy-2-(3-{[3-methoxy-5-(oxane-4-sulfonyl)pyridin-2-yl]amino}-1H-indazol-6-yl)spiro[cyclopropane-1,3′-indol]-2′(1′H)-one] | 900 nM |
| 526.7 | 3488.1209 | 1.39 nM | CCS(=O)(=O)c1cc(OC)c(Nc2n[nH]c3cc([C@@H]4C[C@@]45C(=O)Nc4ccc(OC)cc45)ccc23)cn1 [Example 262, (1R,2S)-2-(3-{[6-(ethanesulfonyl)-4-methoxypyridin-3-yl]amino}-1H-indazol-6-yl)-5′-methoxyspiro[cyclopropane-1,3′-indol]-2′(1′H)-one] | 507 nM |
| 181.6923 | 1133.6923 | 0.65 nM | COc1ccc2c(c1)[C@]1(C[C@H]1c1ccc3c(Nc4ncc(C(=O)N5CCC5)cc4OC)n[nH]c3c1)C(=O)N2 [Example 263, (1R,2S)-2-(3-{[5-(azetidine-1-carbonyl)-3-methoxypyridin-2-yl]amino}-1H-indazol-6-yl)-5′-methoxyspiro[cyclopropane-1,3′-indol]-2′(1′H)-one] | 599 nM |
| 66.6751 | 307.8980 | 0.785 nM | COc1ccc2c(c1)[C@]1(C[C@H]1c1ccc3c(Nc4ncc(C(=O)N5CCOCC5)cc4OC)n[nH]c3c1)C(=O)N2 [Example 264, (1R,2S)-5′-methoxy-2-(3-{[3-methoxy-5-(morpholine-4-carbonyl)pyridin-2-yl]amino}-1H-indazol-6-yl)spiro[cyclopropane-1,3′-indol]-2′(1′H)-one] | 860 nM |
| 725.3912 | 686 | 1.98 nM | COc1ccc2c(c1)[C@]1(C[C@H]1c1ccc3c(Nc4cc5c(cc4OC)C(=O)N(C)C5)n[nH]c3c1)C(=O)N2 [Example 265, (1R,2S)-5′-methoxy-2-{3-[(6-methoxy-2-methyl-1-oxo-2,3-dihydro-1H-isoindol-5-yl)amino]-1H-indazol-6-yl)spiro[cyclopropane-1,3′-indol]-2′(1′H)-one] | 1070 nM |
| 154.9914 | 723.9761 | 2.34 nM | COc1ccc2c(c1)[C@]1(C[C@H]1c1ccc3c(Nc4ccc5c(c4OC)CN(C)C5=O)n[nH]c3c1)C(=O)N2 [Example 266, (1R,2S)-5′-methoxy-2-{3-[(4-methoxy-2-methyl-1-oxo-2,3-dihydro-1H-isoindol-5-yl)amino]-1H-indazol-6-yl}spiro[cyclopropane-1,3′-indol]-2′(1′H)-one] | 792 nM |
| 406.8833 | 789.0376 | 1.57 nM | COc1ccc2c(c1)[C@]1(C[C@H]1c1ccc3c(Nc4ncc(S(=O)(=O)N5CCCO5)cc4OC)n[nH]c3c1)C(=O)N2 [Example 267, (1R,2S)-5′-methoxy-2-(3-{[3-methoxy-5-(1,2-oxazolidine-2-sulfonyl)pyridin-2-yl]amino}-1H-indazol-6-yl)spiro[cyclopropane-1,3′-indol]-2′(1′H)-one] | 325 nM |
| 769.9084 | 1159 | 0.874 nM | COc1ccc2c(c1)[C@]1(C[C@H]1c1ccc3c(Nc4ncc(S(=O)(=O)N5CCC5)cc4OC)n[nH]c3c1)C(=O)N2 [Example 268, (1R,2S)-2-(3-{[5-(azetidine-1-sulfonyl)-3-methoxypyridin-2-yl]amino}-1H-indaxol-6-yl)-5′-methoxyspiro[cyclopropane-1,3′-indol]-2′(1′H)-one] | 124 nM |
| 138.7640 | 191.7977 | 0.89 nM | COc1ccc2c(c1)[C@]1(C[C@H]1c1ccc3c(Nc4ncc(S(=O)(=O)NC5(C)COC5)cc4OC)n[nH]c3c1)C(=O)N2 [Example 269, 5-methoxy-6-({6-[(1R,2S)-5′-methoxy-2′-oxo-1′,2′-dihydrospiro[cyclopropane-1,3′-indol]-2-yl]-1H-indazol-3-yl}amino)-N-(3-methyloxetan-3-yl)pyridine-3-sulfonamide] | 1350 nM |
| 1790.7801 | 473.6 | 0.564 nM | COc1ccc2c(c1)[C@]1(C[C@H]1c1ccc3c(Nc4ncc(S(=O)(=O)N(C)C5(C)COC5)cc4OC)n[nH]c3c1)C(=O)N2 [Example 270, 5-methoxy-6-({6-[(1R,2S)-5′-methoxy-2′-oxo-1′,2′-dihydrospiro[cyclopropane-1,3′-indol]-2-yl]-1H-indazol-3-yl}amino)-N-methyl-N-(3-methyloxetan-3-yl)pyridine-3-sulfonamide] | 269 nM |
| 448.8595 | 3273.7094 | 0.833 nM | CCOc1cc(S(C)(=O)=O)ccc1Nc1n[nH]c2cc([C@@H]3C[C@@]34C(=O)Nc3ccc(OC)cc34)ccc12 [Example 272, (1R,2S)-2-{3-[2-Ethoxy-4-(methanesulfonyl)anilino]-1H-indazol-6-yl}-5′-methoxyspiro[cyclopropane-1,3′-indol]-2′(1′H)-one] | 77.8 nM |
| 2831.3833 | 3483.1383 | 1.45 nM | CCOc1cc(S(=O)(=O)N2CCN(C)CC2)cnc1Nc1n[nH]c2cc([C@@H]3C[C@@]34C(=O)Nc3ccc(OC)cc34)ccc12 [Example 273, (1R,2S)-2-(3-{[3-ethoxy-5-(4-methylpiperazine-1-salfonyl)pyridin-2-yl]amino)-1H-indazol-6-yl)-5′-methoxyspiro[cyclopropane-1,3′-indol]-2′(1′H)-one] | 1700 nM |
| 961.3368 | 2560.9436 | 0.763 nM | CCOc1cc(S(=O)(=O)CC)cnc1Nc1n[nH]c2cc([C@@H]3C[C@@]34C(=O)Nc3ccc(OC)cc34)ccc12 [Example 274, (1R,2S)-2-(3-{[5-(Ethanesulfonyl)-3-ethoxypyridin-2-yl]amino}-1H-indazol-6-yl)-5′-methoxyspiro[cyclopropane-1,3′-indol]-2′(1′H)-one] | 72.3 nM |
